Measured values taken from patent EP0983275B1, “NOVEL TRIPTOLIDE DERIVATIVES USEFUL IN THE TREATMENT OF AUTOIMMUNE DISEASES” (priority 1997, dated 1998).
Converted amounts (≈) assume the structure as drawn.

Experiments:
[1] = test system: adjuvant-induced arthritis; experiment: Anti-inflammatory activity in the rat model of adjuvant-induced arthritis; assay type: in vivo, Male Wistar-Lewis rats; settings: 12 consecutive days
Experimental: Following generally the procedure of Pearson and Wood, Arth. Rheum., 2, 44 (1959), the anti-inflammatory activity of the following compounds was determined in a rat model of adjuvant-induced arthritis. Male Wistar-Lewis rats (Mollegaard, Breeding Centre Ltd, BIBY, DK 4623 LI, SKENSVED, P.P. Box 28, DK) with a body weight between 160 g and 200 g are used. Freund's adjuvant (0.1 mL, 6 mg Mycobacterium smegmatis suspension per mL in heavy white paraffin oil, Merck/Darmstadt) was injected into the base of the tail. […] The animals received standardized food Altromin-R (Altrogge, Lage) and had free access to water. The compounds were administered i.p. (a suspension in carboxymethyl cellulose solution in an injection volume of 0.5 mL/100 g body weight) on 12 consecutive days, starting with the day of the adjuvant injection. On day 1 and day 18 of the study, the volume of both hind paws and the body weight were recorded, and in addition on day 18 the arthritis index.

IL-2 production = experiment: Interleukin-2 assay (IL-2 production by ELISA after PHA/TPA stimulation); assay type: cell-based; settings: Jurkat E6-1 cells or human lymphocytes stimulated with PHA 10 µg/mL and 10^-8 M TPA; 16-24 hours
Experimental: (§1) Jurkat E6-1 cell line (ATCC), a human leukemic T cell line or lymphocytes prepared from fresh human blood, are grown in complete culture medium consisting of RPMI-1640 (Mediatech) supplemented with 10% v/v fetal bovine serum (HyClone, Logen, Vermont), penicillin (100 units/mL), streptomycin ([…]), and 2mM L-glutamine (GIBCO, Grand Island, New York). The cells are grown to a concentration of between 1.2 to 1.8 X 10^6 cells/mL before use. The cells are then centrifuged at low speed and resuspended to a concentration of 1.25 X 10^6 cells/mL in fresh medium.
(§2) The compounds to be tested are dissolved in DMSO, and water is added to make a 50% DMSO/water solution. The compounds are then diluted in sterile water such that the DMSO concentrations are less then 0.05%. The cells at a concentration of 1.25 X 10^6 cells/mL are stimulated with phytohemagglutinin 10 µg/mL (PHA) and 10^-8 M phorbol ester (12-O-tetradecanoylphorbol 13-acetate: TPA), (Sigma, St. Louis, Missouri). The compounds are then added and the cells are plated in flat-bottom tissue culture plates (Falcon, Lincoln Park, New Jersey), with 250,000 cells/well. Plates are then incubated at 37°C in a 5% CO2 atmosphere.
(§3) After incubation (16-24 hours), the cells are assayed for IL-2 production and cell viability (MTT). IL-2 production is assayed utilizing a solid phase ELISA immunoassay, sold in kit form by R&D Systems, Inc., Minneapolis, Minnesota.

[2] = Body weight change (weight gain) in the rat model of adjuvant-induced arthritis; assay type: in vivo, Male Wistar-Lewis rats; settings: 10 mg/kg/day i.p.; weight gain between day 1 and day 21
Experimental: Following generally the procedure of Pearson and Wood, Arth. Rheum., 2, 44 (1959), the anti-inflammatory activity of the following compounds was determined in a rat model of adjuvant-induced arthritis. Male Wistar-Lewis rats (Mollegaard, Breeding Centre Ltd, BIBY, DK 4623 LI, SKENSVED, P.P. Box 28, DK) with a body weight between 160 g and 200 g are used. Freund's adjuvant (0.1 mL, 6 mg Mycobacterium smegmatis suspension per mL in heavy white paraffin oil, Merck/Darmstadt) was injected into the base of the tail. Between day 10 and day 14 of the test, immunopathological processes let to chronic inflammation, especially in the form of arthritic and periarthritic symptoms in all parts of the body. The animals received standardized food Altromin-R (Altrogge, Lage) and had free access to water. The compounds were administered i.p. (a suspension in carboxymethyl cellulose solution in an injection volume of 0.5 mL/100 g body weight) on 12 consecutive days, starting with the day of the adjuvant injection. On day 1 and day 18 of the study, the volume of both hind paws and the body weight were recorded, and in addition on day 18 the arthritis index. Cyclosporin A and Prednisolone were used as standard compounds. In addition, table IV presents the percent change in body weight (weight gain) between day 1 and day 21 of the above test.

Jurkat E6-1 cell line = experiment: Cell viability (MTT mitochondrial enzyme assay); assay type: cell-based, human; settings: cells of the IL-2 assay after removal of supernatant, MTT 4 hours at 37°C
Experimental: as §1, §2, §3
Cell viability is measured by the use of a mitochondrial enzyme assay. After removal of the supernatant for the IL-2 assay, Cell Titer 96 (a commercial solution of MTT obtained from Promega, Madison, Wisconsin), is added to the plates and incubated for 4 hours at 37°C. A solubilization solution is then added and incubated overnight. The plates are then read on an ELISA plate reader at a wavelength of 570 nm. Table II presents the results for the Interleukin-2 assay, the cell viability assay and the ratio of cell viability/IL-2 inhibition.

Q: With `C[C@]12C=CC(=O)C=C1CC[C@@H]1[C@@H]2[C@@H](O)C[C@@]2(C)[C@H]1CC[C@]2(O)C(=O)CO` [Prednisolone] as the compound, how does the “% Inhibition” value ([1]; 15 mg/kg/day i.p.) read?
A: 100%

Q: Which results are given for `CC(C)C12OC1C1OC13C1(C)CCC4=C(COC4=O)C1CCC3(O)C2O` (stereo not drawn) [Example 1, [5aR-(5aα,6α,6aα,7aα,7bβ,8aS*,8bα)]-3,3b,4,5,5a,6,6a,7a,7b,8b,9,10-dodecahydro-5a,6-dihydroxy-8b-methyl-6a-(1-methylethyl)-1H-bisoxireno[4b,5:6,7]phenanthro[1,2-c]furan-1-one]?
A: IC50/IL-2 (IL-2 production): 0.036 µg/mL (≈ 0.0993 µM); % Inhibition ([1]; 10 mg/kg/day i.p.): 90%; % Change in Body Weight [2]: 29.9%; IC50/MTT (Jurkat E6-1 cell line): 0.3 to 0.5 µg/mL

Q: For `CC(C)[C@]12O[C@H]1[C@@H]1O[C@]13[C@]1(O[C@H]1C[C@H]1C4=C(CC[C@@]13C)C(=O)OC4)[C@@H]2O` [Triptolide], which IC50 (IL-2 production) is on record?
A: 0.001 to 0.003 µg/mL (≈ 0.00277 to 0.00832 µM)

Q: What about the “% Inhibition” value ([1]; 0.2 mg/kg/day i.p.) of the same compound?
A: 70%

Q: What about the “% Inhibition” value ([1]; 0.4 mg/kg/day i.p.) of the same compound?
A: 85%

Q: And the “% Inhibition” value ([1]; 0.8 mg/kg/day i.p.)?
A: 76%

Q: What about the IC50 (Jurkat E6-1 cell line; Homo sapiens, Jurkat E6.1) of the same compound?
A: 0.005 µg/mL (≈ 0.0139 µM)

Q: Which results are given for “[1S-(1α,2β,3α,3aβ,4aR*,4bα,11aα)]-3-chloro-1,2,3,3a,4b,5,6,9,9b,10,11,11a-dodecahydro-1,2,11a-trihydroxy-4b-methyl-2-(1-methylethyl)-7H-oxireno[4b,5]phenanthro[1,2-c]furan-7-one [Example 2]”?
A: IC50/IL-2 (IL-2 production): 0.06 µg/mL; IC50/MTT (Jurkat E6-1 cell line): 0.55 µg/mL
